{"source": "patent US11987807B2", "about": "“Isolated human lung progenitor cells and uses thereof” (THE GENERAL HOSPITAL CORPORATION, priority 2012, dated 2024)", "system": "human iPSC and ESC lines", "assay": "Definitive endoderm generation from human iPSC/ESC (FOXA2/SOX17 co-staining)", "type": "cell-based", "details": "screen of multiple PI3K inhibitors (LY-294002, ZSTK474, Wortmannin, PI828, NVP-BKM120, PIK-75)", "description": "The endoderm is one of the three primary germ cell layers in the embryo. It forms the embryonic gut which in turn gives rise to the epithelia of the lungs and digestive organs. Therefore, the first essential step for directing human iPSC towards a lung lineage is to generate endoderm cells, preferably with high efficiency. […] For example, the current published protocol (Mou et al., 2012; RPMI+2% B27+100 ng/ml TGF-beta agonist Activin A+5 uM LY-294002 PI3K Inhibitor) is effective in several human iPSC and ESC lines with definitive endoderm efficiency higher than 90%. In some “difficult” or “resistant” cell lines, this same protocol generates definitive endoderm that varies between low efficiency (<30%) to medium efficiency (40-70%). […] Therefore, this protocol is much more cost-effective than prior protocols. […]\nThis protocol permits a remarkable 90% or greater, including 91%, 92%, 93%, 94%, 95%, 96%, 97%, and even as high as 98% or more, of human iPSC/ESC cells to be converted into definitive endoderm cell as determined by nuclear staining for the transcription factors Foxa2 and Sox17. […] Furthermore, this protocol can be universally applied to multiple cell lines including several “difficult” cell lines that were determined to have low efficiency of definitive endoderm generation. […]", "data": [{"compound": "FC(F)c1nc2ccccc2n1-c1nc(N2CCOCC2)nc(N2CCOCC2)n1", "note": "[ZSTK474]", "values": [{"measurement": "potency for definitive endoderm generation", "value": "most potent"}]}]}
